{"source": "paper PMC6343479", "about": "(2018)", "key": {"[1]": {"test_system": "r(CUG)4 (RNA, repeat) CUGCUGCUGCUG", "assay": "ITC", "settings": "single binding model; representative curve K = (1.06 ± 0.30) ×10^7 M^-1"}, "[2]": {"test_system": "CTG palindrome d(CTGCTGCAGCAG) (DNA, duplex) CTGCTGCAGCAG", "assay": "ITC", "settings": "single binding model; representative curve K = (2.1 ± 0.3) ×10^6 M^-1"}}}
{"smiles": "N=C(N)c1ccc(-c2ccc(-c3ccc(C(=N)N)cc3)o2)cc1", "values": [{"measurement": "KD", "setting": "[1]", "result": "99 ± 25", "unit": "nM"}, {"measurement": "KD", "setting": "[2]", "result": "485 ± 73", "unit": "nM"}]}
